One series concerns HCT-116 cells. As to the kind of experiment: MTT assay in HCT-116 cells. Format: cell-based, Human. As for the experimental part: Human CRC cell lines were purchased from the American Type Culture Collection (VA, USA). HCT-116 cells were cultured in DMEM (HyClone, Utah, USA) containing 10% fetal bovine serum (FBS; Gibco, NY, USA). SW480 cells were cultured in RPMI 1640 medium (HyClone, Utah, USA) containing 10% FBS. All cells were cultured in an incubator (Thermo, CA, USA) at a constant temperature of 37 °C and 5% CO2. N-Acetylcysteine (NAC), Trolox, MLN4924, 5-Fu, and capecitabine were purchased from MedChemExpress LLC (Shanghai, China). MG132 was purchased from Santa Cruz Biotech (CA, USA). Chloroquine (CHQ) was purchased from Sigma (CA, USA). Rapamycin was purchased from Beyotime (Shanghai, China). Primary antibodies against SRSF3 and E-Cadherin were purchased from Abcam (Cambridge, UK). Primary antibodies against N-Cadherin, Caspase 3, DHCR24, CAT, Akt and phospho-Akt (Ser473) were purchased from Cell Signaling Technology (MA, USA). Primary antibodies against β-actin, mTOR, and phospho-mTOR ([…]) were purchased from Beyotime (Shanghai, China). Primary antibody against Vimentin was purchased from Proteintech (Wuhan, China). Primary antibody against Bcl-2 was purchased from Santa Cruz Biotech (CA, USA). Primary antibody against Flag was purchased from MBL Beijing Biotech (Beijing, China). CRC cells were transfected with 100 nM siRNA or treated with various doses of SFI003 for 24 h, 48 h, or 72 h before being subjected to MTT assay as described previously.

In the next series the test system is SW480 xenografts. As to the kind of experiment: SW480 xenografts in SCID mice. Format: in vivo. The protocol:
To explore the effect of SFI003 on the growth of CRC, approximately 3 × 10^6 HCT-116 cells or 8 × 10^6 SW480 cells were collected and mixed with Matrigel (Corning, NY, USA) at a 1:1 ratio by volume and then injected into the lower back region of mice. When tumors were palpable, mice were randomly divided into four groups. One group received vehicle as a control, while the other three groups were orally administered SFI003 at a dosage of 100 or 200 mg/kg or capecitabine at a dosage of 100 mg/kg for two continuous weeks. The tumor sizes and mouse body weights were monitored every other day. At the end of the experiment, tumors and blood samples were collected for further studies. The tumor size was evaluated according to Eq.: tumor size (mm^3) = (length × width^2) × 0.5.

Series [1] can be described thus: Tissue distribution in ICR mice. Particulars: oral 100 mg/kg. Format: in vivo. The protocol: 29 the blood samples by centrifuging at 5,000 rpm under 4℃ for 5 min. For
30 determination of SFI003 concentration in mice tissues, the male ICR mice (n=3) were
31 orally administrated with 100mg/kg SFI003, and the liver and kidney of the mice were
32 collected at 0.25, 0.5, 1, 2, 4, 8, and 12 h after administration. An aliquot of 25 µl plasma
33 or tissue sample was added into 100 µl acetonitrile containing internal standard
34 Tolbutamide. The mixture was vortexed for 3 min and centrifuged at 13,000 rpm for 10
35 min. An aliquot of 10 µl resulting supernatant was injected to LC -MS/MS system
36 (API4000 QTrap; AB Sciex) for compound analysis. The analytes were separated in a
37 Venusil XBP-C18 column (2.1×50 mm, 5 μm; Agela, China) using the mixture of 5mM
38 NH4OAc-0.1% formic acid (A) and methanol (B) as mobile phase. The gradient
39 condition was: 1.3 min, 2%B; 2.0 min, 90%B; 3.5 min, 90%B; 3.8 min, 2%B. The elutes
40 were detected by MS/MS spectrometry using ESI positive mode with m/z 271.1>172.2,
42 SFI003. […]

A further series can be described thus: Plasma protein binding. Format: in vitro ADME. Particulars: read-out: plasma protein binding rate (converted).
A further series relates to ROS. The series is described as follows: Detection of ROS (DCFH-DA) in HCT-116 and SW480 cells. Format: cell-based, Human. Particulars: HCT-116 and SW480, 10, 20 and 50 μM, 72 h, dose-dependent. The protocol:
Following treatment with SFI003 or siRNA, the cells were washed with PBS and incubated with DCFH-DA for 20 min at 37 °C. After washing three times, the cells were collected and measured at 488 nm excitation and 525 nm emission by a microplate reader (Tecan, Switzerland) according to the manufacturer’s instructions (Beyotime, Shanghai, China). The protein concentrations were determined by using a BCA assay (TaKaRa, Kusatsu, Japan).

The test system of the next series is HCT-116 and SW480 cells. As to the kind of experiment: Wound-healing and Transwell migration assays. Format: cell-based, Human. Particulars: HCT-116 and SW480, 10 μM, 24 h. As for the experimental part:
HCT-116 and SW480 cells were seeded into six-well plates in confluent monolayers. Then, the cells were transfected with 100 nM siRNA or treated with 10 μM SFI003. Scratch wounds were created using a sterilized tip in 0.5% serum medium. Images were captured at 0 h, 24 h, and 72 h after wounding. Three independent measurements of wound width were conducted.
HCT-116 and SW480 cells (1 × 10^5) were resuspended in 200 µl medium containing 0.1% serum and then added to the upper compartment of migration chambers (Costar, Corning, NY, USA). The bottom chamber was filled with 600 µl cell culture medium with 20% FBS as an attractant. After coculture for 24 h or 48 h, the cells were fixed in 4% paraformaldehyde and stained with 0.1% crystal violet. The stained cells in 8 random fields were counted at ×100 magnification. Three independent measurements were conducted.

Each structure is given as a SMILES string. Entries after “also recorded” stand apart in the source; their conditions may differ.

Consider `COc1ccc(-c2csc(N/N=C(\C)c3nc4ccccc4[nH]3)n2)cc1` [SFI003], for which the “cytotoxicity after SRSF3 silencing” value with HCT-116 cells (HCT-116, SRSF3 siRNA 24 h, then 10 μM for 72 h) is on record as “eliminated”. In addition, the inhibition of proliferation entry in the series with HCT-116 cells (HCT-116, various doses, 24, 48 and 72 h) is “dose- and time-dependent”. Moreover, the “IC50 compared with the other synthesized compounds” value in the series on HCT-116 cells (HCT-116 cells, 72 h) was “the most potent compound with the lowest IC50 value”. This compound also displayed an IC50 in the series on HCT-116 cells (Homo sapiens, HCT-116 cells, 72 h) of 8.78 µM. Further, the “growth of SW480 xenografts” value in the series with SW480 xenografts (100 or 200 mg/kg orally, two weeks, dose-dependent) is given as “efficiently suppressed”. The body weight result with SW480 xenografts (SW480 tumor-bearing mice, oral, two weeks) is “slight reduction”. In addition, in the series on SW480 xenografts (SW480 xenografts, oral, two weeks, capecitabine 100 mg/kg), the “antitumor activity compared with capecitabine” value is given as “stronger inhibitory activity than capecitabine; also recorded: more potent antitumor efficacy than capecitabine”. In the series with SW480 xenografts (mice grafted with SW480 cells, 100 mg/kg, 2 h), the “concentration of SFI003 in tumors versus plasma” value was “close to the plasma”. The “distribution to liver and kidney” value in series [1] is given as “highly accumulated”. Besides, in “Plasma protein binding”, the fraction unbound was 0.586. Further, in the series on ROS, the ROS level result is reported as “significantly enhanced”. For the same compound, the “migration of CRC cells” value in the series with HCT-116 and SW480 cells was “repressed”.

These data come from article PMC9061822, “A novel SRSF3 inhibitor, SFI003, exerts anticancer activity against colorectal cancer by modulating the SRSF3/DHCR24/ROS axis” (Cell Death Discovery, 2022).
